How the values were obtained:
[1] = In vitro laurdan generalized polarization (GP) in LUVs; assay type: physicochemical; conditions: POPC LUVs with 10% sterol (labeled adduct 90%:8%:2%), compared with chol
Description: Large unilamellar vesicles (LUV) composed of POPC:chol (90%:10%), POPC:chol-N3 (90%:10%) or POPC/chol-N3/chol-N3-AF 647-DBCO (90%:8%:2%) were prepared following the extrusion method described by Cebecauer M. et al. (Membrane Lipid Nanodomains. Chem Rev, 2018). Laurdan was added in the organic phase before solvent evaporation. Laurdan labeled liposomes at a concentration of 30 µM were kept under continuous stirring, and the determination of GP profiles at different temperatures was performed. All fluorescence measurements were made using an SLM Aminco series 2 (Spectronic Instruments, Rochester, NY) spectrofluorimeter as previously described (Sheng R. et al. Nat Commun 3, 1249, 2012). To quantify changes in the Laurdan emission spectrum, generalized polarization (GP) values were calculated as follow: GP = (IB-IR)/(IB+IR), where IB (at 440 nm) and IR (at 490 nm) correspond to the intensities at the blue and red edges of the emission maxima, respectively (Bernardino de la Serna J et al., J Biol Chem 279, 40715-40722, 2004 and Sezgin E et al., Nat Rev Mol Cell Biol 18, 361-374, 2017).

HeLa cells = experiment: Competition assay of cellular uptake against natural chol; assay type: cell-based, Human; conditions: probe fixed at 5 µM, chol 0-1 mM, 1 h co-incubation; result stated at 500 µM chol
Description: A competition assay was designed to test chol-N3 and fluorescently pre-labeled chol-N3 uptake by cells. HeLa cells were seeded onto coverslips in DMEM supplemented with 10% FBS, and co-incubated with a fixed concentration of chol-N3 (5 µM) or with chol-N3 (5 µM) labeled with 10 µM AF 488-DBCO and an increasing concentration of natural chol (ranging from 0 to 1 mM) added externally to the cells. After 1h co-incubation of cells with the mixture, cells were stained in vivo with 25 µM AF 488-DBCO for 60 min, counterstained with DAPI, fixed, and imaged using a ZEISS apotome. Alternaltively, HeLa cells were treated with 5 µM Bodipy-chol in DMEM supplemented with 10% FBS and co-incubated with increasing concentration of natural chol (0-1mM) for 1h. Cells were fixed, and counterstained with DAPI.
Human cervix adenocarcinoma HeLa cells and human bone marrow neuroblast SH-SY5Y cells were obtained from ATCC. HeLa cells were maintained in DMEM (Dulbecco's modified Eagle's medium) supplemented with 10% FBS, 2 mM Glutamax, 100 units/ml penicillin, and 100 µg/ml streptomycin (Life Technologies) at 37 °C with 5% CO2. SH-SY5Y cells were maintained in DMEM/F12 (F12 and Dulbecco's modified Eagle's medium) supplemented with 10% FBS and 1% penicillin and streptomycin. (Life Technologies) at 37°C with 5% CO2.

CC(CCCN=[N+]=[N-])C1CCC2C3CC=C4CC(O)CCC4(C)C3CCC12C (centres unmarked) [chol-N3, 17-(5-azidopentan-2-yl)-10,13-dimethyl-2,3,4,7,8,9,10,11,12,13,14,15,16,17-tetradecahydro-1H-cyclopenta[a]phenanthren-3-ol]
membrane order (laurdan generalized polarization, GP) versus temperature [1]: same membrane order behavior irrespective of the chol analog used
uptake in the presence of increasing extracellular chol (HeLa cells): virtually abolished
